Experimental data from PubChem BioAssay (NCI).
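1) Cells in 96-well plates. 2) Compound, 48 h, 5 concentrations. 3) Linear interpolation between surrounding doses. 4) Unreached endpoint = highest concentration. GI50 marks 50% less growth. The concentration for full growth arrest is given as TGI.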

Tests used:
Assay in all cases: NCI-60 cell line screen, 48 h
NCI-H23 lung = test system: NCI-H23 lung
SR leukemia = test system: SR leukemia
CCRF-CEM leukemia = test system: CCRF-CEM leukemia
SN12C renal = test system: SN12C renal
HT29 colon = test system: HT29 colon
RXF 393 renal = test system: RXF 393 renal
HS 578T breast = test system: HS 578T breast
NCI-H522 lung = test system: NCI-H522 lung
MDA-MB-468 breast = test system: MDA-MB-468 breast
786-0 renal = test system: 786-0 renal
NCI/ADR-RES ovarian = test system: NCI/ADR-RES ovarian
MALME-3M melanoma = test system: MALME-3M melanoma
UACC-62 melanoma = test system: UACC-62 melanoma
IGROV1 ovarian = test system: IGROV1 ovarian
SF-268 CNS = test system: SF-268 CNS
HCT-15 colon = test system: HCT-15 colon
SW-620 colon = test system: SW-620 colon
OVCAR-3 ovarian = test system: OVCAR-3 ovarian
COLO 205 colon = test system: COLO 205 colon
OVCAR-8 ovarian = test system: OVCAR-8 ovarian
SF-539 CNS = test system: SF-539 CNS
MOLT-4 leukemia = test system: MOLT-4 leukemia
HL-60(TB) leukemia = test system: HL-60(TB) leukemia
A549 NSCLC = test system: A549 NSCLC
MDA-MB-231 breast = test system: MDA-MB-231 breast
OVCAR-5 ovarian = test system: OVCAR-5 ovarian
M14 melanoma = test system: M14 melanoma
TK-10 renal = test system: TK-10 renal
RPMI-8226 leukemia = test system: RPMI-8226 leukemia
K-562 leukemia = test system: K-562 leukemia
UO-31 renal = test system: UO-31 renal
SK-MEL-2 melanoma = test system: SK-MEL-2 melanoma
SNB-75 CNS = test system: SNB-75 CNS
HOP-62 NSCLC = test system: HOP-62 NSCLC
OVCAR-4 ovarian = test system: OVCAR-4 ovarian
SF-295 CNS = test system: SF-295 CNS
SK-OV-3 ovarian = test system: SK-OV-3 ovarian
U251 CNS = test system: U251 CNS
SK-MEL-5 melanoma = test system: SK-MEL-5 melanoma
ACHN renal = test system: ACHN renal
UACC-257 melanoma = test system: UACC-257 melanoma
HOP-92 NSCLC = test system: HOP-92 NSCLC
CAKI-1 renal = test system: CAKI-1 renal
SK-MEL-28 melanoma = test system: SK-MEL-28 melanoma
BT-549 breast = test system: BT-549 breast
A498 renal = test system: A498 renal
NCI-H460 lung = test system: NCI-H460 lung
HCT-116 colon = test system: HCT-116 colon
NCI-H226 lung = test system: NCI-H226 lung
HCC-2998 colon = test system: HCC-2998 colon
LOX IMVI melanoma = test system: LOX IMVI melanoma
PC-3 prostate = test system: PC-3 prostate
MCF7 breast = test system: MCF7 breast
DU-145 prostate = test system: DU-145 prostate
EKVX NSCLC = test system: EKVX NSCLC
SNB-19 CNS = test system: SNB-19 CNS
KM12 colon = test system: KM12 colon
MDA-MB-435 = test system: MDA-MB-435

O=C(CNc1nc(-c2ccccc2)cs1)Nc1ccc(Br)cc1
GI50 (NCI-H23 lung): 0.646 µM
TGI (NCI-H23 lung): 1.89 µM
GI50 (SR leukemia): 0.47 µM
TGI (SR leukemia): > 100 µM
GI50 (CCRF-CEM leukemia): 0.245 µM
TGI (CCRF-CEM leukemia): > 100 µM
GI50 (SN12C renal): 0.649 µM
TGI (SN12C renal): 1.99 µM
GI50 (HT29 colon): 0.752 µM
TGI (HT29 colon): 2.16 µM
GI50 (RXF 393 renal): 1.15 µM
TGI (RXF 393 renal): 2.54 µM
GI50 (HS 578T breast): 2.14 µM
TGI (HS 578T breast): 22.3 µM
GI50 (NCI-H522 lung): 0.168 µM
TGI (NCI-H522 lung): 0.339 µM
GI50 (MDA-MB-468 breast): 0.532 µM
TGI (MDA-MB-468 breast): 1.18 µM
GI50 (786-0 renal): 0.798 µM
TGI (786-0 renal): 2.1 µM
GI50 (NCI/ADR-RES ovarian): 0.557 µM
TGI (NCI/ADR-RES ovarian): 3.68 µM
GI50 (MALME-3M melanoma): 0.739 µM
TGI (MALME-3M melanoma): 2.09 µM
GI50 (UACC-62 melanoma): 0.903 µM
TGI (UACC-62 melanoma): 2.32 µM
GI50 (IGROV1 ovarian): 0.876 µM
TGI (IGROV1 ovarian): 2.43 µM
GI50 (SF-268 CNS): 1.72 µM
TGI (SF-268 CNS): 7.07 µM
GI50 (HCT-15 colon): 0.469 µM
TGI (HCT-15 colon): 1.16 µM
GI50 (SW-620 colon): 0.759 µM
TGI (SW-620 colon): 2.3 µM
GI50 (OVCAR-3 ovarian): 0.747 µM
TGI (OVCAR-3 ovarian): 1.93 µM
GI50 (COLO 205 colon): 1.3 µM
TGI (COLO 205 colon): 2.84 µM
GI50 (OVCAR-8 ovarian): 1.66 µM
TGI (OVCAR-8 ovarian): 6.07 µM
GI50 (SF-539 CNS): 0.779 µM
TGI (SF-539 CNS): 2.02 µM
GI50 (MOLT-4 leukemia): 0.424 µM
GI50 (HL-60(TB) leukemia): 1.32 µM
TGI (HL-60(TB) leukemia): 49.2 µM
GI50 (A549 NSCLC): 1.66 µM
TGI (A549 NSCLC): 3.56 µM
GI50 (MDA-MB-231 breast): 0.655 µM
TGI (MDA-MB-231 breast): 1.97 µM
GI50 (OVCAR-5 ovarian): 1.61 µM
TGI (OVCAR-5 ovarian): 3.02 µM
GI50 (M14 melanoma): 0.875 µM
TGI (M14 melanoma): 2.49 µM
GI50 (TK-10 renal): 1.84 µM
TGI (TK-10 renal): 3.27 µM
GI50 (RPMI-8226 leukemia): 0.396 µM
TGI (RPMI-8226 leukemia): 1.89 µM
GI50 (K-562 leukemia): 0.309 µM
TGI (K-562 leukemia): > 100 µM
GI50 (UO-31 renal): 1.05 µM
TGI (UO-31 renal): 2.33 µM
GI50 (SK-MEL-2 melanoma): 1.32 µM
TGI (SK-MEL-2 melanoma): 2.7 µM
GI50 (SNB-75 CNS): 1.13 µM
TGI (SNB-75 CNS): 5.94 µM
GI50 (HOP-62 NSCLC): 1.6 µM
TGI (HOP-62 NSCLC): 3.17 µM
GI50 (OVCAR-4 ovarian): 1.33 µM
TGI (OVCAR-4 ovarian): 2.98 µM
GI50 (SF-295 CNS): 1.48 µM
TGI (SF-295 CNS): 4.1 µM
GI50 (SK-OV-3 ovarian): 1.94 µM
TGI (SK-OV-3 ovarian): 4.75 µM
GI50 (U251 CNS): 0.525 µM
TGI (U251 CNS): 1.34 µM
GI50 (SK-MEL-5 melanoma): 0.707 µM
TGI (SK-MEL-5 melanoma): 1.87 µM
GI50 (ACHN renal): 0.844 µM
TGI (ACHN renal): 2.16 µM
GI50 (UACC-257 melanoma): 1.41 µM
TGI (UACC-257 melanoma): 3.14 µM
GI50 (HOP-92 NSCLC): 1.4 µM
TGI (HOP-92 NSCLC): 3.1 µM
GI50 (CAKI-1 renal): 0.917 µM
TGI (CAKI-1 renal): 2.3 µM
GI50 (SK-MEL-28 melanoma): 1.58 µM
TGI (SK-MEL-28 melanoma): 2.97 µM
GI50 (BT-549 breast): 0.498 µM
TGI (BT-549 breast): 1.68 µM
GI50 (A498 renal): 3.65 µM
TGI (A498 renal): 7.99 µM
GI50 (NCI-H460 lung): 1.43 µM
TGI (NCI-H460 lung): 3.42 µM
GI50 (HCT-116 colon): 0.507 µM
TGI (HCT-116 colon): 1.66 µM
GI50 (NCI-H226 lung): 1.12 µM
TGI (NCI-H226 lung): 3.51 µM
GI50 (HCC-2998 colon): 1.45 µM
TGI (HCC-2998 colon): 2.77 µM
GI50 (LOX IMVI melanoma): 0.296 µM
TGI (LOX IMVI melanoma): 1.29 µM
GI50 (PC-3 prostate): 1.24 µM
TGI (PC-3 prostate): 3.62 µM
GI50 (MCF7 breast): 0.625 µM
TGI (MCF7 breast): 1.94 µM
GI50 (DU-145 prostate): 1.6 µM
TGI (DU-145 prostate): 3.05 µM
GI50 (EKVX NSCLC): 1.42 µM
TGI (EKVX NSCLC): 3.03 µM
GI50 (SNB-19 CNS): 1.48 µM
TGI (SNB-19 CNS): 3.08 µM
GI50 (KM12 colon): 1.79 µM
TGI (KM12 colon): 5.35 µM
GI50 (MDA-MB-435): 1.02 µM
TGI (MDA-MB-435): 2.79 µM
